Here are results for 5 molecules from EPA's ToxValDB 9.5 (doi:10.2903/j.efsa.2016.4612).

The subject of data set [1] is Folsomia candida. Conditions: chronic/long-term; duration: 28 days; reproduction.
Data set [2] deals with Tagia sp. Conditions: chronic/long-term; duration: 56 days.
The subject of data set [3] is Lepomis macrochirus. Particulars: acute; duration: 96 hours; mortality.
In data set [4] the test system is Landoltia sp. Conditions: acute; duration: 7 days; other.
For data set [5], the system named is Rattus norvegicus. Conditions: for LD50: acute, gavage, mortality.
Data set [6] relates to Colinus virginianus. Conditions: oral.
Data set [7] deals with Pimephales promelas. Conditions: chronic/long-term; duration: 35 days; reproduction.
Data set [8] relates to Apis mellifera. Particulars: acute, duration: 48 hours, mortality.
The subject of data set [9] is Oryctolagus sp. Particulars: reproduction developmental; clinical signs.
For data set [10], the system named is Oncorhynchus mykiss. Conditions: acute; duration: 96 hours; mortality.
Data set [11] deals with Daphnia magna. Particulars: chronic/long-term; duration: 21 days; reproduction.

What is called LC50 is the concentration lethal to half of the exposed cells or organisms. A high value points to a less lethal substance. For orientation: NOAEL means the highest tested level that showed no adverse finding.

`CCCOc1nn(C(N)=O)c(=O)n1C`: the figures for the NOEC in data set [1] and in data set [2] were 10 mg/kg and 316 mg/kg, respectively.

`CCCOc1nn(C(=O)NS(=O)(=O)c2ccccc2C(=O)O)c(=O)n1C` yielded an LC50 in data set [3] greater than 87.7 µg/mL. Besides, the NOEC in data set [4] worked out at 14.2 mg/L.

As for `O=C1NS(=O)(=O)c2cccc(O)c21` [4-hydroxy-1H-1,2-benzisothiazole-1,1,3(2H)-trione], the NOEC in data set [1] turned out to be 10 mg/kg; in data set [2] it was 5 mg/kg.

Consider `COC(=O)c1ccccc1S(=O)(=O)NC(=O)n1nc(OCC(C)O)n(C)c1=O` (stereo not given) [Propoxycarbazone-2-hydroxypropoxy], for which the LD50 in data set [5] (oral) was greater than 5000 mg/kg-day. The same molecule registered an NOAEL in [5] (short-term, duration: 28 days, oral, diet) greater than 880 mg/kg-day.

Take `CCCOc1nn(C(=O)[N-]S(=O)(=O)c2ccccc2C(=O)OC)c(=O)n1C.[Na+]` [Propoxycarbazone-sodium]: the NOEC worked out at 500 mg/kg in data set [1], 5.83 mg/L in data set [7], 1.25 mg/kg in [2] and 13.8 mg/L in data set [11]. Besides, the LD50 in data set [6] (acute, mortality) is greater than 2000 mg/kg-day; in [8] (dermal) it was greater than 100 µg/piece; in [8] (oral, unspecified) it was greater than 110 µg/piece; in data set [5] (oral), greater than 5000 mg/kg-day. This molecule also gave an NOEL in data set [6] (reproduction developmental, duration: 25 weeks, diet, reproduction) of 45 mg/kg-day. The NOAEL was 100 mg/kg-day in [9] and 43 mg/kg-day in [5] (chronic, duration: 2 years, clinical chemistry). Moreover, the LC50 in data set [10] was greater than 77.2 µg/mL.
